Read-outs that look alike come from different tables or passages of the source.
What was measured:
PC cells = assay: Anti-proliferative assay, five day treatment, CellTiter-Glo; assay type: cell-based; settings: growth inhibition
From the text: The amount of cells remaining at the end of the treatment was estimated by CellTiter-Glo (Promega).
Many of the cell lines in this subset had deficiencies in the Rb1 and p53 tumor suppressor pathways.

22Rv1 = assay: S-phase arrest (cell cycle FACS); assay type: cell-based; parameters: key: “+” (present); “−” (absent); settings: Rb wt, p53 wt
Experimental: (§1) Cell cycle phase distribution in control (C) cells or cells treated at 20 or 200 nM Compound 1 for 24 hours (24 h) determined by fluorescence activated cell sorting (FACS) analysis, and detection of histone H2A variant H2A.X phosphorylation (γH2A.X, also referred to herein as gamma H2A.X or γH2A.X) by Western blot as DNA damage biomarker.
(§2) In table 1, “wt”=wild-type; “x”=cells harboring Rb and p53 deficiencies; “+” (present) or “−” (absent) indicate the arrest (i.e. accumulation) of cells in S-phase triggered by Compound 1, which coincided with accumulation of the DNA damage marker phosphorylated gamma H2AX (γH2AX; see FIG. 3A). These events are followed by activation of caspases 3 and 7 as indicators of cell apoptosis as indicated by “+” (present) or “−” (absent). In cancer cells with intact Rb and/or p53 functions (wt=wild-type), Compound 1 induced growth arrest but not a substantial increase of cells in S-phase (=S-phase arrest). Upon release of treatment, such cells are able to proliferate again.

BT-549 = assay: S-phase arrest (cell cycle FACS); assay type: cell-based; parameters: key: “+” (present); “−” (absent); settings: Rb x, p53 x
Experimental: as §1, §2

DU-145 = assay: S-phase arrest (cell cycle FACS); assay type: cell-based; parameters: key: “+” (present); “−” (absent); settings: Rb x, p53 x
Experimental: as §1, §2

Hut-78 = assay: S-phase arrest (cell cycle FACS); assay type: cell-based; parameters: key: “+” (present); “−” (absent); settings: Rb x, p53 x
Experimental: as §1, §2

LNCaP = assay: S-phase arrest (cell cycle FACS); assay type: cell-based; parameters: key: “+” (present); “−” (absent); settings: Rb wt, p53 wt
Experimental: as §1, §2

NCI-H146 = assay: S-phase arrest (cell cycle FACS); assay type: cell-based; parameters: key: “+” (present); “−” (absent); settings: Rb x, p53 x
Experimental: as §1, §2

NCI-H209 = assay: S-phase arrest (cell cycle FACS); assay type: cell-based; parameters: key: “+” (present); “−” (absent); settings: Rb x, p53 x
Experimental: as §1, §2

NCI-H660 = assay: S-phase arrest (cell cycle FACS); assay type: cell-based; parameters: key: “+” (present); “−” (absent); settings: Rb x, p53 x
Experimental: as §1, §2

NCI-H69 = assay: S-phase arrest (cell cycle FACS); assay type: cell-based; parameters: key: “+” (present); “−” (absent); settings: Rb x, p53 x
Experimental: as §1, §2

NCI-H82 = assay: S-phase arrest (cell cycle FACS); assay type: cell-based; parameters: key: “+” (present); “−” (absent); settings: Rb x, p53 x
Experimental: as §1, §2

SCLC-21H = assay: S-phase arrest (cell cycle FACS); assay type: cell-based; parameters: key: “+” (present); “−” (absent); settings: Rb x, p53 x
Experimental: as §1, §2

Y-79 = assay: S-phase arrest (cell cycle FACS); assay type: cell-based; parameters: key: “+” (present); “−” (absent); settings: Rb x, p53 wt
Experimental: as §1, §2

p300 = assay: Western blot of p53 acetylated by p300 on K382 in LNCaP cells; assay type: cell-based
Experimental: Top panel: Cell cycle distribution in LNCap cells treated with siRNA (2 bars on the right) in comparison to control LNCaP cells without siRNA treatment (2 bars in the middle), in the absence (−) or presence (+) of Compound 1 for 24 h at the indicated concentration. For comparison, DU-145 cells harboring a combined Rb1 and p53 loss-of-function are included (2 bars on the left). Lower panel: Western blot analysis according to the same experimental conditions as given for the top panel.

[1] = 28-day once weekly oral repeated-dose DRF study in cynomolgus monkeys (mesylate salt); assay type: in vivo; settings: for Cmax / Tmax / half-life / AUC(0-t): cynomolgus monkey, po; for AUC(0-t): read-out: AUC0-Tlast
Experimental: The objective of the study was to determine the TK profile of Compound 1 following 4 weekly oral administrations to cynomolgus monkeys and to assess reversibility of any changes following a 13-day recovery period.
Male and female cynomolgus monkeys (n=1/sex/group) were orally administered Compound 1 (mesylate salt) at dose levels of 30, 45, 60, or 90 mg/kg/administration for 4 consecutive doses on study days 1, 8, 15, and 22. The vehicle was 0.5% (w/v) methyl cellulose 400 in sterile water. For TK analysis blood samples were collected from each monkey on Days 1, 8, 15 and 22 at pre-dose, 15 min, 30 min, as well as 1, 2, 4, 6, 8, 12, and 24 hours post-dose. Non-compartmental analysis of Compound 1 blood concentrations data sets was performed using the Phoenix® WinNonlin® software (version 6.4).

[2] = female, blood, 45 mg/kg, F, Day 1
[3] = female, blood, 45 mg/kg, F, Day 22
[4] = female, blood, 60 mg/kg, F, Day 1
[5] = female, blood, 60 mg/kg, F, Day 22
[6] = female, blood, 90 mg/kg, F, Day 1
[7] = female, whole blood, 30 mg/kg, F, Day 1
[8] = female, whole blood, 30 mg/kg, F, Day 22
[9] = male, blood, 60 mg/kg, M, Day 1
[10] = male, blood, 60 mg/kg, M, Day 22
[11] = male, blood, 90 mg/kg, M, Day 1
[12] = male, whole blood, 30 mg/kg, M, Day 1
[13] = male, whole blood, 30 mg/kg, M, Day 22
[14] = male, whole blood, 45 mg/kg, M, Day 1
[15] = male, whole blood, 45 mg/kg, M, Day 22

With `CC(C)C[C@@H]1NCCN([C@@H](CC(C)C)C(=O)N2CCC3(C[C@@H]2C)OCC(CN2CCCC2)CO3)C1=O` (stereo partly drawn) [Compound 1, (S)-3-isobutyl-1-((S)-4-methyl-1-((S)-8-methyl-3-(pyrrolidin-1-ylmethyl)-1,5-dioxa-9-azaspiro[5.5]undecan-9-yl)-1-oxopentan-2-yl)piperazin-2-one] the IC50 values (PC cells) was “nanomolar range”, the “S-Phase Arrest” value (22Rv1) was “−” and the “S-Phase Arrest” value (BT-549) was “+”. The “S-Phase Arrest” value (DU-145) was “+”, the “S-Phase Arrest” value (Hut-78) was “+” and the “S-Phase Arrest” value (LNCaP) was “−”. The “S-Phase Arrest” value (NCI-H146) was “+”, the “S-Phase Arrest” value (NCI-H209) was “+” and the “S-Phase Arrest” value (NCI-H660) was “+”. For the same compound, the “S-Phase Arrest” value (NCI-H69) was “+”, the “S-Phase Arrest” value (NCI-H82) was “+” and the “S-Phase Arrest” value (SCLC-21H) was “+”. For the same compound, the “S-Phase Arrest” value (Y-79) was “−”, the “amount of p53 acetylated by p300 on K382” value (p300; control LNCaP cells) was “increased” and the “HAT/KAT activity of p300” value (p300; inferred from p53 K382 acetylation) was “not inhibited”. It also gave a Cmax [1, 2] of 1460 ng/mL, a Tmax [1, 2] of 1.5 h and a half-life [1, 2] of 6.3 h. It also gave an AUC(0-t) [1, 2] of 4130 ng·h/mL, a Cmax [1, 3] of 1650 ng/mL and a Tmax [1, 3] of 1.5 h. For the same compound, the half-life [1, 3] was 5.8 h, the AUC(0-t) [1, 3] was 4810 ng·h/mL and the Cmax [1, 4] was 1830 ng/mL. For the same compound, the Tmax [1, 4] was 1 h, the half-life [1, 4] was 3.8 h and the AUC(0-t) [1, 4] was 7440 ng·h/mL. It also gave a Cmax [1, 5] of 4480 ng/mL, a Tmax [1, 5] of 2 h and a half-life [1, 5] of 4.4 h. It also gave an AUC(0-t) [1, 5] of 17400 ng·h/mL, a Cmax [1, 6] of 5030 ng/mL and a Tmax [1, 6] of 1.5 h. It also gave a half-life [1, 6] of 4.3 h, a Cmax [1, 7] of 296 ng/mL and a Tmax [1, 7] of 0.63 h. The half-life [1, 7] was 6.4 h, the AUC(0-t) [1, 7] was 894 ng·h/mL and the Cmax [1, 8] was 223 ng/mL. The Tmax [1, 8] was 1.25 h, the half-life [1, 8] was 5.5 h and the AUC(0-t) [1, 8] was 874 ng·h/mL. For the same compound, the AUC(0-t) ([1]; female, whole blood, 90 mg/kg, F, Day 1) was 18700 ng·h/mL, the Cmax [1, 9] was 449 ng/mL and the Tmax [1, 9] was 0.5 h. It also gave a half-life [1, 9] of 7.5 h, an AUC(0-t) [1, 9] of 1170 ng·h/mL and a Cmax [1, 10] of 2430 ng/mL. It also gave a Tmax [1, 10] of 1 h, a half-life [1, 10] of 5.7 h and an AUC(0-t) [1, 10] of 6710 ng·h/mL. For the same compound, the Cmax [1, 11] was 7300 ng/mL, the Tmax [1, 11] was 0.63 h and the half-life [1, 11] was 4.2 h. The AUC(0-t) [1, 11] was 22800 ng·h/mL, the Cmax [1, 12] was 229 ng/mL and the Tmax [1, 12] was 0.63 h. It also gave a half-life [1, 12] of 4.9 h, an AUC(0-t) [1, 12] of 721 ng·h/mL and a Cmax [1, 13] of 171 ng/mL. It also gave a Tmax [1, 13] of 2 h, a half-life [1, 13] of 2.6 h and an AUC(0-t) [1, 13] of 576 ng·h/mL. It also gave a Cmax [1, 14] of 1040 ng/mL, a Tmax [1, 14] of 1.5 h and a half-life [1, 14] of 7.6 h. It also gave an AUC(0-t) [1, 14] of 2950 ng·h/mL, a Cmax [1, 15] of 1350 ng/mL and a Tmax [1, 15] of 1.25 h. The half-life [1, 15] was 5.2 h, the AUC(0-t) [1, 15] was 3910 ng·h/mL and the accumulation ([1]; once weekly for 4 weeks at doses up to 60 mg/kg) was “did not accumulate”. For the same compound, the tolerability ([1]; single oral administration of 90 mg/kg/adm) was “side effects in one animal” and the tolerability ([1]; weekly oral for 4 consecutive weeks at 30, 45, and 60 mg/kg/administration) was “well-tolerated”.

From patent US12611406B2, “Oxopiperazine derivatives for the treatment of cancer” (Inthera Bioscience AG, priority 2020, dated 2026)
